# Reference: US7390642B2, “Salutaridinol 7-O-acetyltransferase and derivatives thereof” (priority 2001, dated 2008)
# Where two headings read alike, the source gives them in different places.
# B1: recombinant enzyme: P. somniferum salutaridinol 7-O-acetyltransferase, SEQ. ID No. 14, 474 amino acids (protein, listed as Papaver somniferum)
# chain: MATMYSAAVEVISKETIKPTTPTPSQLKNFNLSLLDQCFPLYYYVPIILFYPATAANSTGSSNHHDDLDLLKSSLSKTLVHFYPMAGRMIDNILVDCHDQGINFYKVKIRGKMCEFMSQPDVPLSQLLPSEVVSASVPKEALVIVQVNMFDCGGTAICSSVSHKIADAATMSTFIRSWASTTKTSRSGGSTAAVTDQKLIPSFDSASLFPPSERLTSPSGMSEIPFSSTPEDTEDDKTVSKRFVFDFAKITSVREKLQVLMHDNYKSRRQTRVEVVTSLIWKSVMKSTPAGFLPVVHHAVNLRKKMDPPLQDVSFGNLSVTVSAFLPATTTTTTNAVNKTINSTSSESQVVLHELHDFIAQMRSEIDKVKGDKGSLEKVIQNFASGHDASIKKINDVEVINFWISSWCRMGLYEIDFGWGKPIWVTVDPNIKPNKNCFFMNDTKCGEGIEVWASFLEDDMAKFELHLSEILELI
# How the values were obtained:
# [1] = target: T1, salutaridinol 7-O-acetyltransferase (Papaver somniferum, UniProt Q94FT4)
# [2] = target: T1, salutaridinol 7-O-acetyltransferase; assay: Inhibition of enzyme activity by covalent modification with diethylpyrocarbonate; format: biochemical, P. somniferum; parameters: The full-length cDNA generated by RT-PCR was ligated into pFastBac HTa; His tag (N); made in house; host or cells: Spodoptera frugiperda Sf9 cells (baculovirus, pFastBac HTa); purified from culture medium
# Source text: Sequence Analysis of pSalAT: Translation of the complete nucleotide sequence of salAT yielded a polypeptide of 474 amino acids containing no apparent signal peptide. This is consistent with the cytosolic localization of the enzyme activity (6). The enzyme activity is also operationally found associated with the cytosolic fraction of exuded latex. The salAT amino acid sequence contains residues conserved in other plant acetyltransferases as indicated by the black boxes in FIG. 2 (SEQ. IDs No.7 to 12). The longest contiguous region of conserved amino acids are the five residues DFGWG near the carboxy terminus that were used for primer design and are indicated by an arrow. Conserved histidine and aspartate residues (HXXXD; denoted by # in FIG. 2) thought to be involved in catalysis as characterized by x-ray crystallography for the bacterial enzymes chloramphenicol acetyltransferase and dihydrolipoamide acetyltransferase are also present in salutaridinol 7-O-acetyltransferase (23,24).
# [3] = system: CC(=O)SCCNC(=O)CCNC(=O)[C@H](O)C(C)(C)COP(=O)(O)OP(=O)(O)OC[C@H]1O[C@@H](n2cnc3c(N)ncnc32)[C@H](O)[C@@H]1OP(=O)(O)O; assay: purified protein, by the assay type
# [4] = system: COC1=C[C@]23CCN(C)[C@H](Cc4ccc(OC)c(O)c42)C3=C[C@@H]1O; assay: purified protein, by the assay type; settings: other: fixed concentration of acetyl CoA of 30 mm; recombinant enzyme
# [5] = standard assay conditions, acetylation of salutaridinol
molecule,measurement,setting,value
CC[C@]12C=CCN3CC[C@@]4(c5ccc(OC)cc5N(C)[C@H]4[C@@](O)(C(=O)OC)[C@@H]1O)[C@@H]32 [deacetylvindoline],acetylation at C-7 by the recombinant enzyme (substrate acceptance),"[1]; recombinant enzyme, acetyl CoA",not
[3H]C1(O)C=C2C3Cc4ccc(OC)c(O)c4C2(C=C1OC)CCN3C (centres unmarked) [[7-^3H]salutaridinol],conversion into a product that co-migrated during TLC with authentic thebaine standard,"[1]; radioassay of pure, recombinant enzyme",100%
COC1=C[C@]23CCN(C)[C@H](Cc4cc5c(cc42)OCO5)C3=C[C@@H]1O [nudaurine],Vmax (nudaurine),[1]; nudaurine as substrate,19 pmol/s
same,Km,"[1]; read-out: apparent Km nudaurine, at 30 mM acetyl CoA",23 µM
same,acetylation at C-7 by the recombinant enzyme (substrate acceptance),"[1]; recombinant enzyme, acetyl CoA",acetylated
COC1=C[C@]23CCN(C)[C@H](Cc4ccc(OC)c(O)c42)C3=C[C@@H]1O [7(R)-salutaridinol],acetylation at C-7 by the recombinant enzyme (substrate acceptance),"[1]; recombinant enzyme, acetyl CoA",not
"COC1=C[C@]23CCN(C)[C@H](Cc4ccc(OC)c(O)c42)C3=C[C@@H]1O [salutaridinol, 7(S)-salutaridinol]",ratio kcat/Km (salutaridinol):kcat/Km(nudaurine),"[1]; preference of salutaridinol over nudaurine, factor",3.3
same,acetylation at C-7 by the recombinant enzyme (substrate acceptance),"[1]; recombinant enzyme, acetyl CoA, listed as 7(S)-salutaridinol",acetylated
"CCOC(=O)OC(=O)OCC [DEPC, diethylpyrocarbonate]",effect of carbethoxylation of histidine residues on enzyme activity,[2],loss of enzyme activity
same,inhibition at 3000 µM,[2]; 3 mM DEPC,50%
same,inhibition at 5000 µM,[2]; 5 mM DEPC,92%
same,inactivation of enzyme,[2]; 5 mM DEPC after preincubation of the enzyme with 30 mM acetyl CoA,46%
salutaridinol 7-O-acetyltransferase (Papaver somniferum),Km,[3]; other: at 10 mM nudaurine,106 µM
same,Km,"[3]; other: fixed concentration of salutaridinol of 10 mM, recombinant enzyme",54 µM
same,Km,[4],9 µM
same,Vmax,[4],25 pmol/s
COC1=C[C@]23CCN(C)[C@H](Cc4ccc(OC)c(O)c42)C3=CC1=O [salutaridine],acetylation at C-7 by the recombinant enzyme (substrate acceptance),"[1]; recombinant enzyme, acetyl CoA",not
CN1CC[C@]23c4c5ccc(O)c4O[C@H]2[C@@H](O)C=C[C@H]3[C@H]1C5 [morphine],acetylation at C-7 by the recombinant enzyme (substrate acceptance),[1],not
B1,pH optimal range,[1]; [5],7-9
same,temperature optimum,[1]; [5],47 °C
